Measured values reported in US20200222474A1, “COMPOSITIONS AND METHODS FOR INCREASING PHYTOCHEMICAL BIOAVAILABLITY AND BIOACTIVITY” (North Carolina State University, priority 2017, published 2020).

Tested on: L. acidophilus NCFM
Assay: RNA-seq transcriptional analysis of L. acidophilus NCFM growing on plant glycosides
Type: cell-based, Lactobacillus acidophilus
[1] = LBA1481 D-ribose-binding protein precursor, COG G
[2] = LBA1482 Ribose ABC transporter, COG G
[3] = LBA1483 Ribose ABC transporter ATP binding protein, COG G
[4] = LBA1484 D-ribose pyranase, COG G
[5] = LBA1494 Lincomycin-resistance protein, COG GEPR
[6] = LBA1607 Phosphatidylserine decarboxylase precursor, COG I
[7] = LBA1632 NAD-dependent aldehyde dehydrogenase, COG C
[8] = LBA1653 Nicotinamide mononucleotide, COG H
[9] = LBA1684 Putative PTS system IIA component, COG G
[10] = LBA1689 Maltose-6′-phosphate Oucosidase, COG G
[11] = LBA1700 Transcriptional regulator-type, COG K
[12] = LBA1701 Melibiose operon regulatory protein, COG K
[13] = LBA1705 PTS system IIBC component, COG G
[14] = LBA1708 Transcriptional antiterminator, COG K
[15] = LBA1710 Thermostable pullulanase, COG G
[16] = LBA1812 Alpha-glucosidase II, COG G
[17] = LBA1870 Maltose phosphorylase, COG G
[18] = LBA1872 Oligo-1,6-glucosidase, COG G
[19] = LBA1955 Transcription regulator family protein, COG K
[20] = gene LBA0046 (Hypothetical protein)
[21] = gene LBA0149 (Putative nucleotide-binding protein)
[22] = gene LBA0263 (Hypothetical protein)

OCc1ccccc1O[C@@H]1O[C@H](CO)[C@@H](O)[C@H](O)[C@H]1O [Salicin]
Log2 differential normalized TPM ratio compared to glucose [1]: 0.4 | Log2 differential normalized TPM ratio compared to lactose [1]: −0.4 | Transcripts per million (rpm) [1]: 6.4 rpm | Log2 differential normalized TPM ratio compared to glucose [2]: 0.7 | Log2 differential normalized TPM ratio compared to lactose [2]: −0.4 | Transcripts per million (rpm) [2]: 6.1 rpm | Log2 differential normalized TPM ratio compared to glucose [3]: 0.4 | Log2 differential normalized TPM ratio compared to lactose [3]: −0.7 | Transcripts per million (rpm) [3]: 4.2 rpm | Log2 differential normalized TPM ratio compared to glucose [4]: 0.2 | Log2 differential normalized TPM ratio compared to lactose [4]: −0.5 | Transcripts per million (rpm) [4]: 4.5 rpm | Log2 differential normalized TPM ratio compared to glucose (LBA1485 Ribokinase, COG G): 0.5 | Log2 differential normalized TPM ratio compared to lactose (LBA1485 Ribokinase, COG G): −0.3 | Transcripts per million (rpm) (LBA1485 Ribokinase, COG G): 4.5 rpm | Log2 differential normalized TPM ratio compared to glucose [5]: 0.6 | Log2 differential normalized TPM ratio compared to lactose [5]: 0.5 | Transcripts per million (rpm) [5]: 8.2 rpm | Log2 differential normalized TPM ratio compared to glucose [6]: 0.9 | Log2 differential normalized TPM ratio compared to lactose [6]: −0.2 | Transcripts per million (rpm) [6]: 37.9 rpm | Log2 differential normalized TPM ratio compared to glucose [7]: 2 | Log2 differential normalized TPM ratio compared to lactose [7]: 0.2 | Transcripts per million (rpm) [7]: 300.2 rpm | Log2 differential normalized TPM ratio compared to glucose [8]: 1.3 | Log2 differential normalized TPM ratio compared to lactose [8]: 0.7 | Transcripts per million (rpm) [8]: 618.8 rpm | Log2 differential normalized TPM ratio compared to glucose [9]: 2.6 | Log2 differential normalized TPM ratio compared to lactose [9]: 0.6 | Transcripts per million (rpm) [9]: 76.9 rpm | Log2 differential normalized TPM ratio compared to glucose [10]: 3.7 | Log2 differential normalized TPM ratio compared to lactose [10]: 2.2 | Transcripts per million (rpm) [10]: 47.4 rpm | Log2 differential normalized TPM ratio compared to glucose [11]: 0.1 | Log2 differential normalized TPM ratio compared to lactose [11]: −0.4 | Transcripts per million (rpm) [11]: 23 rpm | Log2 differential normalized TPM ratio compared to glucose [12]: 1 | Log2 differential normalized TPM ratio compared to lactose [12]: 0.2 | Transcripts per million (rpm) [12]: 84.1 rpm | Log2 differential normalized TPM ratio compared to glucose [13]: 1.3 | Log2 differential normalized TPM ratio compared to lactose [13]: 0.4 | Transcripts per million (rpm) [13]: 8.4 rpm | Log2 differential normalized TPM ratio compared to glucose [14]: 1.2 | Log2 differential normalized TPM ratio compared to lactose [14]: −0.2 | Transcripts per million (rpm) [14]: 1.3 rpm | Log2 differential normalized TPM ratio compared to glucose [15]: 0.5 | Log2 differential normalized TPM ratio compared to lactose [15]: 0.1 | Transcripts per million (rpm) [15]: 10.8 rpm | Log2 differential normalized TPM ratio compared to glucose (LBA1723 Transposase, COG L): 0.5 | Log2 differential normalized TPM ratio compared to lactose (LBA1723 Transposase, COG L): 0.2 | Transcripts per million (rpm) (LBA1723 Transposase, COG L): 75.5 rpm | Log2 differential normalized TPM ratio compared to glucose [16]: 2.2 | Log2 differential normalized TPM ratio compared to lactose [16]: 0.1 | Transcripts per million (rpm) [16]: 75.4 rpm | Log2 differential normalized TPM ratio compared to glucose [17]: −0.9 | Log2 differential normalized TPM ratio compared to lactose [17]: 0.2 | Transcripts per million (rpm) [17]: 55.6 rpm | Log2 differential normalized TPM ratio compared to glucose (LBA1871 Neopullulanase, COG G): 0.9 | Log2 differential normalized TPM ratio compared to lactose (LBA1871 Neopullulanase, COG G): 0.2 | Transcripts per million (rpm) (LBA1871 Neopullulanase, COG G): 5.1 rpm | Log2 differential normalized TPM ratio compared to glucose [18]: 1 | Log2 differential normalized TPM ratio compared to lactose [18]: 0.6 | Transcripts per million (rpm) [18]: 6.2 rpm | Log2 differential normalized TPM ratio compared to glucose (LBA1873 Acetate kinase, COG C): 1.2 | Log2 differential normalized TPM ratio compared to lactose (LBA1873 Acetate kinase, COG C): −0.2 | Transcripts per million (rpm) (LBA1873 Acetate kinase, COG C): 8.3 rpm | Log2 differential normalized TPM ratio compared to glucose (LBA1878 Glycerol kinase, COG C): 0.1 | Log2 differential normalized TPM ratio compared to lactose (LBA1878 Glycerol kinase, COG C): 0 | Transcripts per million (rpm) (LBA1878 Glycerol kinase, COG C): 9.3 rpm | Log2 differential normalized TPM ratio compared to glucose [19]: −0.3 | Log2 differential normalized TPM ratio compared to lactose [19]: 0.1 | Transcripts per million (rpm) [19]: 428.6 rpm | number of up-regulated genes (RNA-seq, compared to glucose): 33 genes | number of uniquely induced genes (RNA-seq, up-regulated genes not shared with the other PGs): 0 | Log2 differential normalized TPM ratio compared to glucose [20]: −0.2 | Log2 differential normalized TPM ratio compared to lactose [20]: −0.9 | Transcripts per million (rpm) [20]: 270.7 rpm | Log2 differential normalized TPM ratio compared to glucose [21]: 1.2 | Log2 differential normalized TPM ratio compared to lactose [21]: 0.4 | Transcripts per million (rpm) [21]: 1141 rpm | Log2 differential normalized TPM ratio compared to glucose [22]: 0.9 | Log2 differential normalized TPM ratio compared to lactose [22]: 0.1 | Transcripts per million (rpm) [22]: 30.2 rpm | Log2 differential normalized TPM ratio compared to glucose (gene LBA0282 (Hypothetical protein)): 0.7
